From patent US5795890A, “Sulfonamide derivatives” (ONO Pharmaceutical Co., Ltd., priority 1995, dated 1998)
Counter-ions that a name gives are not always drawn.

Tests used:
[1] = biological target: T1, human polymorphonuclear elastase (HSE) (Homo sapiens, UniProt P08246); assay: Inhibitory effects on human polymorphonuclear elastase; format: biochemical; details: substrate Meo-Suc-Ala-Ala-Pro-Val-pNA; HEPES pH 8.0; preincubation 37° C. 20 min, incubation 5 min
T1 sequence (P08246 30-267): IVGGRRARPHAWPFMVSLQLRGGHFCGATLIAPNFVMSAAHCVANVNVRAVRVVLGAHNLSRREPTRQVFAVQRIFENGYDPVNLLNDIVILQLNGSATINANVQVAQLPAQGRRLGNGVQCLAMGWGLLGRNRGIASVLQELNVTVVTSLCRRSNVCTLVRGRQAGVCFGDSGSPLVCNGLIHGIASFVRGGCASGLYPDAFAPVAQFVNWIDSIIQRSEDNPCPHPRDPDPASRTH
Method: (1) Inhibitory effects on human polymorphonuclear elastase
A mixture with 0.5 ml of 0.2 mM HEPES buffer (pH 8.0), 0.2 ml of 2.5M NaCl, 0.1 ml of 1% polyethyleneglycol 6000, 0.13 ml of distilled water, test compound dissolved in 0.01 ml of dimethylsulfoxide (DMSO) and 0.05 ml of 0.8 Unit/ml human polymorphonuclearelastase (HSE) was preincubated at 37° C. for 20 min. 5 mM of Meo-Suc-Ala-Ala-Pro-Val-pNA (DMSO solution, 0.01 ml) was then added to the above mixture and was incubated at 37° C. for 5 min. The reaction was terminated by 0.1 ml of 50% acetic acid and the p-nitroanilide (pNA) released was measured spectrophotometrically at […]. Percent inhibition of a compound was calculated by the following equation.
Inhibition (%)=1-{derlat OD(test-blank)/deltaOD(control-blank)}×100

[2] = tested on: human polymorphonuclear elastase-induced lung hemorrhage; assay: Inhibitory effects on human polymorphonuclear elastase-induced lung hemorrhage in hamster; format: in vivo, Syrian hamster; details: oral, 60 min before intratracheal HSE 10 U/0.1 ml, blood in BALF; for inhibition at 500 mg/kg (%): 5 Syrian hamsters per group; for ED50: Homo sapiens, Syrian hamsters
Method: (2) Inhibitory effects on human polymorphonuclear elastase-induced lung hemorrhage in hamster
A test compound suspended in 0.5% Carboxymethylcellulose or 80% Polyethyleneglycol, 400 or 2% Tween 80 was administered orally to a group of 5 Syrian hamsters. At 60 min after the administration, 10 U/0.1 ml of HSE was injected intratracheally via surgically exposed trachea under pentobarbital anesthesia (60 mg/kg, i.p.) to induce lung injury. At 60 min after the injection, hamsters were bled to sacrifice and subjected to bronchoalveolar lavage with 2.5 ml of saline and recovered lavage solution (BALF). The recovered BALF (0.5 ml) was diluted by 4 times with 2% aqueous solution sodium carbonate and sonicated for 10 sec. The lavage fluid was further diluted by 2.5 times with 2% aqueous solution sodium carbonate and the amount of blood in BALF was calculated from absorbance at 414 nm using standard curve.

Compound	IC50 [1] [nM]	inhibition at 500 mg/kg (%) [2] [%]	ED50 [2] [mg/kg]
CCC(C(=O)Oc1ccc(S(=O)(=O)Nc2ccccc2C(=O)NCC(=O)O)cc1)c1ccc2c(c1)OCO2 (racemic) [2(120), 4-(N-2-(N'-carboxymethylcarbamoyl)phenylsulfamoyl)phenyl 2RS-(1,3-benzodioxol-5-yl)butanoic acid ester]	23	–	–
CCC(C(=O)Oc1ccc(S(=O)(=O)N2CCOCC2)cc1)c1ccc(N2CCCC2)cc1 (racemic) [Example 1(16), 4-(morpholin-4-ylsulfonyl)phenyl 2RS-(4-(pyrrolidin-1-yl)phenyl)butanoic acid ester]	17	–	–
CCOC(=O)C(CN1CCOCC1)NS(=O)(=O)c1ccc(OC(=O)C(CC)c2ccc(N3CCCC3)cc2)cc1 (racemic) [Example 1(40), 4-(N-1RS-(ethoxycarbonyl)-2-(morpholin-4-yl)ethylsulfamoyl)phenyl 2RS-(4-(pyrrolidin-1-yl)phenyl)butanoic acid ester]	19	–	–
CCC(C(=O)Oc1ccc(S(=O)(=O)NCC(O)CO)cc1C)c1ccc(C)cc1 (racemic) [Example 1(68), 4-(N-2RS,3-dihydroxypropylsulfamoyl)-2-methylphenyl 2RS-(4-methylphenyl)butanoic acid ester]	–	51	–
CCC(C(=O)Oc1ccc(S(=O)(=O)NC2CN3CCC2CC3)cc1C)c1ccc(N2CCCC2)cc1 (racemic) [Example 1(90), 4-(N-(quinuclidin-3RS-yl)sulfamoyl)-2-methylphenyl 2RS-(4-(pyrrolidin-1-yl)phenyl)butanoic acid ester]	–	65	–
CCC(C(=O)Oc1ccc(S(=O)(=O)N2CSC[C@H]2C(=O)O)cc1)c1ccc(N2CCCC2)cc1 (stereo partly drawn) [2(77), 4-(4S-carboxyperhydrothiazol-3-ylsulfonyl)phenyl 2RS-(4-(pyrrolidin-1-yl)phenyl)butanoic acid ester.hydrochloride]	18	–	–
O=C(O)CNC(=O)c1ccccc1NS(=O)(=O)c1ccc(OC(=O)C2(c3ccc([N+](=O)[O-])cc3)CCC2)cc1 [2(179), 4-(N-2-(N'-carboxymethylcarbamoyl)phenylsulfamoyl)phenyl 1-(4-nitrophenyl)cyclobutanecarboxylic acid ester]	49	–	–
CC[C@H](C(=O)Oc1ccc(S(=O)(=O)N2CCc3cc([N+](=O)[O-])ccc32)cc1C)c1ccc(N2CCCC2)cc1 [Example 1(130), 4-(5-nitroindolin-1-ylsulfonyl)-2-methylphenyl 2S-(4-(pyrrolidin-1-yl)phenyl)butanoic acid ester]	22	–	–
CC[C@H](C(=O)Oc1ccc(S(=O)(=O)NCCN2CCOCC2)cc1C)c1ccc(N2CCCC2)cc1 [Example 1(139), 4-(2-(morpholin-4-yl)ethylaminosulfonyl)-2-methylphenyl 2S-(4-(pyrrolidin-1-yl)phenyl)butanoic acid ester.2hydrochloride]	24	–	192
CCC(C(=O)Oc1ccc(S(=O)(=O)N2CCC[C@H]2C(=O)O)cc1C)c1ccc(N2CCCC2)cc1 (stereo partly drawn) [Example 2, 4-(2S-carboxypyrrolidin-1-ylsulfonyl)-2-methylphenyl 2RS-(4-(pyrrolidin-1-yl)phenyl)butanoic acid ester.hydrochloride]	55	81	–

More lines, in order of falling IC50 [1], values ahead:

IC50 [1] [nM]	Compound	inhibition at 500 mg/kg (%) [2] [%]	ED50 [2] [mg/kg]
14	CCC(C(=O)Oc1ccc(S(=O)(=O)Nc2ccccc2C(=O)NCC(=O)O)cc1)c1ccc(C)cc1 (racemic) [2(173), 4-(N-2-(N'-carboxymethylcarbamoyl)phenylsulfamoyl)phenyl 2RS-(4-methylphenyl)butanoic acid ester]	–	–
14	CCC(C(=O)Oc1ccc(S(=O)(=O)NCC(N)=O)cc1)c1ccc(N2CCCC2)cc1 (racemic) [Example 1(56), 4-(N-(carbamoylmethyl)sulfamoyl)phenyl 2RS-(4-(pyrrolidin-1-yl)phenyl)butanoic acid ester]	–	–
13	CCC(C(=O)Oc1ccc(S(=O)(=O)n2c(C(=O)O)cc3cc(OC)c(OC)cc32)cc1C)c1ccc(N2CCCC2)cc1 (racemic) [2(42), 4-(2-carboxy-5,6-dimethoxyindol-1-ylsulfonyl)-2-methylphenyl 2RS-(4-(pyrrolidin-1-yl)phenyl)butanoic acid ester]	67	–
12	CCC(C(=O)Oc1ccc(S(=O)(=O)N2CCC[C@H]2C(=O)O)cc1)c1ccc(N2CCCC2)cc1 (stereo partly drawn) [Example 2(1), 4-(2S-carboxypyrrolidin-1-ylsulfonyl)phenyl 2RS-(4-(pyrrolidin-1-yl)phenyl)butanoic acid ester.hydrochloride]	–	–
12	CCc1cc(S(=O)(=O)N2CCNCC2)ccc1OC(=O)[C@@H](CC)c1ccc(N2CCCC2)cc1 [Example 2(274), 4-(piperazin-4-ylsulfonyl)-2-ethylphenyl 2S-(4-(pyrrolidin-1-yl)phenyl)butanoic acid ester.2hydrochloride]	–	132
11	CCC(C(=O)Oc1ccc(S(=O)(=O)n2c(C(=O)O)cc3ccccc32)cc1C)c1ccc(C)cc1 (racemic) [2(69), 4-(2-carboxyindol-1-ylsulfonyl)-2-methylphenyl 2RS-(4-methylphenyl)butanoicacid ester]	83	–
10	CCC(C(=O)Oc1ccc(S(=O)(=O)Nc2ccccc2C(=O)NCC(=O)O)cc1)c1ccc(N(C)C)cc1 (racemic) [2(197), 4-(N-2-(N'-carboxymethylcarbamoyl)phenylsulfamoyl)phenyl 2RS-(4-(N,N-dimethylamino)phenyl)butanoic acid ester.hydrochloride]	–	–
9.7	CCC(C(=O)Oc1ccc(S(=O)(=O)NC23CC4CC(C2)CC(C(=O)O)(C4)C3)cc1)c1ccc(N2CCCC2)cc1 (racemic) [2(111), 4-(N-3-carboxyadamantan-1-ylsulfamoyl)phenyl 2RS-(4-(pyrrolidin-1-yl)phenyl)butanoic acid ester]	–	–
9.3	CC[C@H](C(=O)Oc1ccc(S(=O)(=O)N2CCNCC2)cc1C)c1ccc(N2CCCC2)cc1 [Example 2(276), 4-(piperazin-4-ylsulfonyl)-2-methylphenyl 2S-(4-(pyrrolidin-1-yl)phenyl)butanoic acid ester.2hydrochloride]	–	73
8	CCC(C(=O)Oc1ccc(S(=O)(=O)Nc2ccccc2C(=O)NCC(=O)O)cc1)c1ccc(OC)c(OC)c1 (racemic) [2(157), 4-(N-2-(N'-carboxymethylcarbamoyl)phenylsulfamoyl)phenyl 2RS-(3,4-dimethoxyphenyl)butanoic acid ester]	–	–
8	CCC(C(=O)Oc1ccc(S(=O)(=O)NCCc2ccccn2)cc1)c1ccc(N2CCCC2)cc1 (racemic) [Example 1(78), 4-(N-2-(pyridin-2-yl)ethylsulfamoyl)phenyl 2RS-(4-(pyrrolidin-1-yl)phenyl)butanoic acid ester.2hydrochloride]	–	–
6.8	CCC(C(=O)Oc1ccc(S(=O)(=O)N2c3ccccc3CC2C(=O)O)cc1)c1ccccc1OC (racemic) [2(62), 4-(2RS-carboxyindolin-1-ylsulfonyl)phenyl 2RS-(2-methoxyphenyl)butanoic acid ester]	–	–
